From US20080194585A1, “Fungicidal Pyrazine Derivatives” (priority 2005, published 2008)
Marks after values point to notes of the source that are not given here.

Experiments:
Botrytis cinerea = experiment: Test E: tomato botrytis, preventive spray on tomato seedlings
Septoria nodorum = experiment: Test H: wheat glum blotch, preventive spray on wheat seedlings
Description: (the causal agent of wheat glum blotch) and incubated in a saturated atmosphere at 20° C. for 48 h, and then moved to a growth chamber at 22° C. for 5 days, after which disease ratings were made.

fusarium graminearium = experiment: Test I: wheat head scab, preventive spray on wheat seedlings
Description: (the causal agent of wheat head scab) and incubated in a saturated atmosphere at 20° C. for 72 h, and then moved to a growth chamber at 22° C. for 5 days, after which disease ratings were made.

[1] = test system: Erysiphe graminis f. sp. tritici; experiment: Test L: wheat powdery mildew, preventive spray on wheat seedlings
[2] = test system: Colletotrichum orbiculare; experiment: Test B: cucumber Colletotrichum anthracnose, preventive spray on cucumber seedlings
Pythium aphanidermatum = experiment: Test A: bluegrass pythium blight, preventive spray on bluegrass seedlings
Rhizoctonia oryzae = experiment: Test G: turf brown patch, preventive spray on creeping bent grass seedlings
Description: (the causal agent of turf brown patch) and incubated in a saturated atmosphere at 27° C. for 24 h, and then moved to a growth chamber at 27° C. for 5 days, after which disease ratings were made.

Septoria tritici = experiment: Test J: wheat leaf blotch, preventive spray on wheat seedlings; format: in vivo
Text: A dash (-) indicates no test results.

Plasmopara viticola = experiment: Test D: grape downy mildew, spray after inoculation of grape seedlings; format: in vivo
Text: Upon removal, disease ratings were made. […] A dash (-) indicates no test results.

Phytophthora infestans = experiment: whole plant or invertebrate; format: in vivo
[3] = test system: Puccinia recondita f. sp. tritici; experiment: Test K: wheat leaf rust, preventive spray on wheat seedlings
Sclerotinia sclerotiorum = experiment: Test C: cucumber white mold, preventive spray on cucumber seedlings
[4] = 200 ppm, 100 = 100% disease control, 0 = no control

| SMILES | Test E disease control rating (Botrytis cinerea; 200 ppm) [%] | Test H disease control rating (Septoria nodorum; 200 ppm) [%] | Test I disease control rating (fusarium graminearium; 200 ppm) [%] | Test L disease control rating ([1]; 200 ppm) [%] | Test B disease control rating ([2]; 200 ppm) [%] | Test A disease control rating (Pythium aphanidermatum; 200 ppm) [%] | Test G disease control rating (Rhizoctonia oryzae; 200 ppm) [%] | Test D disease control rating (Plasmopara viticola; 200 ppm) [%] | Test F disease control rating (Phytophthora infestans; 200 ppm) [%] | Test K disease control rating ([3]; 200 ppm) [%] | Test C disease control rating (Sclerotinia sclerotiorum; 200 ppm) [%] | also measured |
| --- | --- | --- | --- | --- | --- | --- | --- | --- | --- | --- | --- | --- |
| CCC(C)Cn1c(-c2ccc(F)cc2Cl)c(Cl)nc(-n2ccc(Br)n2)c1=O (racemic) [compound 259] | – | – | – | – | – | – | – | – | – | – | – | Test E disease control rating (Botrytis cinerea; [4]): 100%; Test H disease control rating (Septoria nodorum; [4]): 0%; Test I disease control rating (fusarium graminearium; [4]): 0%; Test L disease control rating [1, 4]: 59%; Test B disease control rating [2, 4]: 94%; Test A disease control rating (Pythium aphanidermatum; [4]): 82%; Test G disease control rating (Rhizoctonia oryzae; [4]): 16%; Test J disease control rating (Septoria tritici; [4]): 100%; Test D disease control rating (Plasmopara viticola; [4]): 0%; Test F disease control rating (Phytophthora infestans; [4]): 0%; Test K disease control rating [3, 4]: 89%; Test C disease control rating (Sclerotinia sclerotiorum; [4]): 0% |
| CC(C)Cn1c(-c2c(F)cccc2F)c(Cl)nc(-c2cn(C)cn2)c1=O [Compound 85, 5-Chloro-6-(2,6-difluorophenyl)-1-(2-methylpropyl)-3-(1-methyl-1H-imidazol-4-yl)-2(1H)-pyrazinone] | – | – | – | – | – | – | – | – | – | – | – | pest or weed control at 200 ppm (Botrytis cinerea; Botrytis cinerea, in Solanum lycopersicum, topical, 72 h, read-out: Test E disease control rating): 100%; pest or weed control at 200 ppm (Septoria nodorum; Parastagonospora nodorum, in Triticum aestivum, topical, 168 h, read-out: Test H disease control rating, 200 ppm): 97%; pest or weed control at 200 ppm (fusarium graminearium; Fusarium, in Triticum aestivum, topical, 192 h, read-out: Test I disease control rating, 200 ppm): 55%; pest or weed control at 200 ppm ([1]; Blumeria graminis, in Triticum aestivum, 168 h, read-out: Test L disease control rating, 200 ppm): 0%; pest or weed control at 200 ppm ([2]; Colletotrichum orbiculare, in Cucumis sativus, 144 h, read-out: Test B disease control rating, 200 ppm): 80%; pest or weed control at 200 ppm (Pythium aphanidermatum; Pythium aphanidermatum, 120 h, read-out: Test A disease control rating): 0%; pest or weed control at 200 ppm (Septoria tritici; Zymoseptoria tritici, 528 h, 200 ppm, read-out: Test J disease control rating): 100%; pest or weed control at 200 ppm (Plasmopara viticola; Plasmopara viticola, 168 h, 200 ppm, read-out: Test D disease control rating): 0%; pest or weed control at 200 ppm (Phytophthora infestans; Phytophthora infestans, in Solanum lycopersicum, topical, 144 h, read-out: Test F disease control rating): 0%; pest or weed control at 200 ppm ([3]; Puccinia recondita, in Triticum aestivum, 192 h, read-out: Test K disease control rating): 99%; pest or weed control at 200 ppm (Sclerotinia sclerotiorum; Sclerotinia sclerotiorum, in Cucumis sativus, 168 h, read-out: Test C disease control rating, 200 ppm): 95% |
| CC(C)Cn1c(-c2cc(Cl)cc(Cl)c2)c(Cl)nc(-n2cccn2)c1=O [compound 42] | 0 | 0 | 60 | 0 | 0 | 0 | 0 | 0 | 0 | 0 | 0 | – |
| CC(C)Cn1c(-c2ccc(Cl)cc2F)c(Cl)nc(-n2cncn2)c1=O [compound 44] | – | – | – | – | – | – | – | – | – | – | – | Test E disease control rating (Botrytis cinerea; 40 ppm (*)): 95* %; Test H disease control rating (Septoria nodorum; 40 ppm (*)): 0* %; Test I disease control rating (fusarium graminearium; 40 ppm (*)): 0* %; Test L disease control rating ([1]; 40 ppm (*)): 0* %; Test B disease control rating ([2]; 40 ppm (*)): 0* %; Test A disease control rating (Pythium aphanidermatum; 40 ppm (*)): 0* %; Test G disease control rating (Rhizoctonia oryzae; 40 ppm (*)): 16* %; Test D disease control rating (Plasmopara viticola; 40 ppm (*)): 0* %; Test F disease control rating (Phytophthora infestans; 40 ppm (*)): 0* %; Test K disease control rating ([3]; 40 ppm (*)): 0* %; Test C disease control rating (Sclerotinia sclerotiorum; 40 ppm (*)): 0* % |
| CC(C)Cn1c(-c2ccc(C(F)(F)F)cc2F)c(Cl)nc(-n2cccn2)c1=O [compound 46] | 0 | 0 | 78 | 0 | 0 | 0 | 0 | 0 | 0 | 0 | 0 | – |
| CC(C)=NNc1nc(Cl)c(-c2c(F)cccc2F)n(CC(C)C)c1=O [compound 48] | 83 | 0 | 0 | 0 | 0 | 0 | 16 | 0 | 0 | 80 | 0 | – |
| COc1nc(-n2cccn2)c(=O)n(C2CCCCC2)c1-c1c(F)cccc1F [compound 49] | 47 | 0 | 0 | 21 | 0 | 0 | 16 | 8 | 0 | 0 | 0 | – |
| CC(C)Cn1c(-c2ccc(F)cc2Cl)c(Cl)nc(-n2cncn2)c1=O [compound 51] | 100 | 100 | 94 | 63 | 98 | 0 | 31 | 0 | 0 | 100 | 99 | – |
| CC(C)Cn1c(-c2cccc(F)c2F)c(Cl)nc(-n2cncn2)c1=O [compound 52] | 98 | 98 | 0 | 21 | 0 | 0 | 16 | 0 | 0 | 74 | 90 | – |
| CC(C)Cn1c(-c2cc(F)ccc2F)c(Cl)nc(-n2cncn2)c1=O [compound 54] | 100 | 90 | 0 | 0 | 0 | 0 | 84 | 0 | 0 | 98 | 92 | – |
| CC(C)Cn1c(-c2c(F)ccc(F)c2F)c(Cl)nc(-n2cncn2)c1=O [compound 55] | 100 | 95 | 78 | 0 | 0 | 0 | 96 | 0 | 0 | 99 | 85 | – |
| CCC(C)Cn1c(-c2c(F)cccc2F)c(Cl)nc(-n2ccnc2C)c1=O (centres unmarked) [compound 69] | – | – | 0 | – | – | 0 | – | 0 | 0 | – | 0 | Test E disease control rating (Botrytis cinerea; 40 ppm (*)): 0* %; Test H disease control rating (Septoria nodorum; 40 ppm (*)): 0* %; Test L disease control rating ([1]; 40 ppm (*)): 0* %; Test G disease control rating (Rhizoctonia oryzae; 40 ppm (*)): 0* %; Test J disease control rating (Septoria tritici; 40 ppm (*)): 62* %; Test K disease control rating ([3]; 40 ppm (*)): 61* % |
| CC(C)Cn1c(-c2c(F)cccc2F)c(Cl)nc(-c2cncn2C)c1=O [compound 83] | 0 | 0 | 0 | 0 | 9 | 0 | – | 0 | 47 | 79 | 64 | Test J disease control rating (Septoria tritici; 200 ppm): 18% |
| CC(C)Cn1c(-c2ccc3ccccc3c2)c(Cl)nc(-n2cccn2)c1=O [compound 90] | 0 | 0 | 0 | 0 | 0 | 0 | – | 16 | 0 | 0 | 63 | Test J disease control rating (Septoria tritici; 200 ppm): 0% |
